Values joined by “and” are separate entries in the source; they are usually repeats but may differ in a detail not shown here. Equal values may be shown once.

For assay [1], the target named is T1, RslTpt1 (Runella slithyformis, UniProt A0A7U3ZK32).
T1 sequence (A0A7U3ZK32 5-178): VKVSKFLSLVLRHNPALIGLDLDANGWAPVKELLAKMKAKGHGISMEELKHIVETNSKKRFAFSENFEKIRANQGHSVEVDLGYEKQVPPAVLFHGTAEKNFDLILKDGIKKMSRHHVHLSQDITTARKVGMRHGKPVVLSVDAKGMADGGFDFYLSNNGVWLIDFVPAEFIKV
In words: Isothermal titration calorimetry. The format is binding. Background: ITC needs no label: the signal is the heat of the interaction.

The target in assay [2] is T1, RslTpt1. In words: NMR ligand-induced chemical shift perturbations on RslTpt1. The format is binding. Conditions: for backbone chemical shift perturbations induced on RslTpt1 (result in words): 15N,1H HSQC, 10 molar equivalents of ligand.

As for `NC(=O)c1ccc[n+]([C@@H]2O[C@H](COP(=O)([O-])OP(=O)(O)OC[C@H]3O[C@@H](n4cnc5c(N)ncnc54)[C@H](OP(=O)(O)O)[C@@H]3O)[C@@H](O)[C@H]2O)c1` [NADP^+], the “fold less affinity than NAD^+” value in assay [1] (ratio of ITC KD values, NADP^+ versus NAD^+) is listed as approximately 30 fold. In assay [1] (read-out: apparent KD, ITC, 17°C, approximate value), the Kd is approximately 1000 µM. In assay [2] (15N,1H resonances, 4 molar equivalents of NADP^+), the “average backbone amide chemical shift perturbation Δδ, N-lobe” value is 0.02 ± 0.03 ppm and 0.02 ppm.
As to `NC(=O)c1ccc[n+]([C@@H]2O[C@H](COP(=O)([O-])O)[C@@H](O)[C@H]2O)c1` [NMN, β-nicotinamide mononucleotide], in assay [2], the “backbone chemical shift perturbations induced on RslTpt1 (result in words)” value is reported as “no significant CSPs”.
Regarding `NC(=O)c1cccnc1` [Nicotinamide, nicotinamide], in assay [2], the “backbone chemical shift perturbations induced on RslTpt1 (result in words)” value is given as “no significant CSPs”.
